From patent US20260232851A1, “METHODS FOR THE DETECTION AND DIAGNOSIS OF CANCERS ASSOCIATED WITH OVEREXPRESSION OF PSMA RECEPTOR” (CLARITY PHARMACEUTICALS LIMITED, priority 2023, published 2026)
Entries after “also recorded” stand apart in the source; their conditions may differ.

Molecular target: T1, PSMA receptor (Homo sapiens, UniProt Q04609)
T1 construct: localises at sites that overexpress the PSMA receptor and are indicative of a cancer; from tissue; host or cells: Primary prostate cancer and metastatic lesions (lymph node, bone, prostatic bed) in living patients
T1 sequence (Q04609 whole entry): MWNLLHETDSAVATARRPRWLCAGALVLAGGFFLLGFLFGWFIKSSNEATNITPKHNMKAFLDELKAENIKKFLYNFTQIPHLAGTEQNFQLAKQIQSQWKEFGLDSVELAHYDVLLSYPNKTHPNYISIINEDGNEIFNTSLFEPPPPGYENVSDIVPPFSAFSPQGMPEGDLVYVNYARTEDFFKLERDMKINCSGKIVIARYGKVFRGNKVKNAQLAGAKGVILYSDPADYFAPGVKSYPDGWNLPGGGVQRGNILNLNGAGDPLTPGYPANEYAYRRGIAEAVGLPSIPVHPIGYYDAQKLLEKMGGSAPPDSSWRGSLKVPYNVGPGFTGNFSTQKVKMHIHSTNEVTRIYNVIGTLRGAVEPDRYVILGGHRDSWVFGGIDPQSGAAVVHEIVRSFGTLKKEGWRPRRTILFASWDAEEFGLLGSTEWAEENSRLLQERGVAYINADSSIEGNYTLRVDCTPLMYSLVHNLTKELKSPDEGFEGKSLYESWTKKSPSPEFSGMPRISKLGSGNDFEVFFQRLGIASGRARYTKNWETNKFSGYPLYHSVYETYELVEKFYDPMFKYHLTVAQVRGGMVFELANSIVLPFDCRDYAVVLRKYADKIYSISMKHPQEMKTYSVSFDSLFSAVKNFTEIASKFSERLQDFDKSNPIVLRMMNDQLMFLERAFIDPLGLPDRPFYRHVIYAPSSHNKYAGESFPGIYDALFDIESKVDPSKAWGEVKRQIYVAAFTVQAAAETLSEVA
Experiment: PET/CT lesion intensity (SUVmax, SUVmean, TTBR) in patients with untreated primary prostate cancer
Format: in vivo
Details: for SUVmax Median Difference / SUVmean Median Difference / TTBR Median Difference: ^64Cu vs ^68Ga; for Tumor to background ratio compared between ^64Cu-Sar-bisPSMA and ^68Ga-PSMA-11 (words): concordant lesions, FIG. 6; for Tumor to background ratio compared between ^64Cu-Sar-bisPSMA and ^68Ga-PSMA-11 (words) / SUVmean of lesions compared between ^64Cu-Sar-bisPSMA and ^68Ga-PSMA-11 (words) / SUVmax of lesions compared between ^64Cu-Sar-bisPSMA and ^68Ga-PSMA-11 (words): two readers; for SUVmean of lesions compared between ^64Cu-Sar-bisPSMA and ^68Ga-PSMA-11 (words) / SUVmax of lesions compared between ^64Cu-Sar-bisPSMA and ^68Ga-PSMA-11 (words): same subjects; for SUVmean of lesions compared between ^64Cu-Sar-bisPSMA and ^68Ga-PSMA-11 (words): FIG. 5; for SUVmax of lesions compared between ^64Cu-Sar-bisPSMA and ^68Ga-PSMA-11 (words): FIGS. 2, 4
Protocol: Patients with untreated, histopathology-proven, intermediate- to high-risk PC, planned for radical prostatectomy underwent ^68Ga-PSMA-11 PET/CT per institutional practice and were subsequently allocated to 1 out of 3 dose cohorts (1:1:3) to receive either 100 MBq, 150 MBq or 200 MBq of ^64Cu-SAR-bisPSMA, respectively. The specified dose of ^64Cu-Sar-bisPSMA was administered to each patient as a single bolus IV injection. […] PET/CT scans at other times after injection of the compound were acquired as required.
Patients were scanned using the standard clinical whole-body PET/CT acquisition protocol defined for each clinical site and in accordance with the Image Acquisition Manual, which contains details of scan acquisition, processing parameters and quality assurance procedures. The same scanner was used for each visit. Typical imaging acquisition parameters are below:
Two independent, blinded, central readers assessed the detection of primary PC on the 200 MBq ^64Cu-SAR-bisPSMA PET/CTs as the primary endpoint. To compare the intensity of lesions on ^68Ga-PSMA-11 and ^64Cu-SAR-bisPSMA PET, both readers determined the SUVs (SUVmax, SUVmean) and tumour-to-background ratio (ratio of lesion SUVmax and background SUVmean) in up to 5 concordant lesions between ^68Ga-PSMA-11 and ^64Cu-SAR-bisPSMA PET/CT as an exploratory endpoint.
Tables 1 and 2 below compare SUV parameters obtained from PET/CT images after administration of ^68Ga-PSMA-11 and a dose of 200 MBq of ^64Cu-SAR-bisPSMA from each reader.
Tables 3 and 4 below compare SUV parameters obtained from PET/CT images after administration of ^68Ga-PSMA-11 (200 MBq) and ^64Cu-SAR-bisPSMA (200 MBq) from each reader.

[1] = Table 1, first reader, 200 MBq ^64Cu-SAR-bisPSMA, N=17
[2] = Table 2, second reader, 200 MBq ^64Cu-SAR-bisPSMA, N=13

With Sar-bisPSMA [^64Cu-SAR-bisPSMA] the “SUVmax Max” value [1] was 100, the “SUVmax Median” value [1] was 31.40 and the “SUVmax Min” value [1] was 8. For the same substance, the “SUVmean Max” value [1] was 69.9, the “SUVmean Mean” value [1] was 27.25 and the “SUVmean Median” value [1] was 21.76. For the same substance, the “SUVmean Min” value [1] was 5.5, the “TTBR (Tumour-to-Background Ratio) Mean” value [1] was 77.25 and the “TTBR Max” value [1] was 227.3. For the same substance, the “TTBR Median” value [1] was 49.07, the “TTBR Min” value [1] was 10.3 and the “SUVmax Median Difference” value (Table 1, first reader, N=17) was 14.85. The “SUVmean Median Difference” value (Table 1, first reader, N=17) was 9.64, the “TTBR Median Difference” value (Table 1, first reader, N=17) was 27.15 and the “SUVmax Mean” value (Table 1, first reader, ^68Ga-PSMA-11 vs 200 MBq ^64Cu-SAR-bisPSMA PET/CT, concordant lesions averaged per participant, N=17) was 40.28. The “SUVmax Max” value [2] was 100, the “SUVmax Median” value [2] was 41.00 and the “SUVmax Min” value [2] was 6.1. The “SUVmean Max” value [2] was 69.9, the “SUVmean Mean” value [2] was 31.78 and the “SUVmean Median” value [2] was 28.07. The “SUVmean Min” value [2] was 4.4, the “TTBR (Tumour-to-Background Ratio) Mean” value [2] was 86.40 and the “TTBR Max” value [2] was 212.8. For the same substance, the “TTBR Median” value [2] was 76.34, the “TTBR Min” value [2] was 6.7 and the “SUVmax Median Difference” value (Table 2, second reader, N=13) was 27.03. For the same substance, the “SUVmean Median Difference” value (Table 2, second reader, N=13) was 18.44, the “TTBR Median Difference” value (Table 2, second reader, N=13) was 45.37 and the “SUVmax Mean” value (Table 2, second reader, ^68Ga-PSMA-11 vs 200 MBq ^64Cu-SAR-bisPSMA PET/CT, concordant lesions averaged per participant, N=13) was 47.37. The “SUVmax Max” value (Table 3, first reader, N=28) was 100.00, the “SUVmax Median” value (Table 3, first reader, N=28) was 30.26 and the “SUVmax Min” value (Table 3, first reader, N=28) was 8.00. The “SUVmean Max” value (Table 3, first reader, N=28) was 69.90, the “SUVmean Mean” value (Table 3, first reader, N=28) was 27.41 and the “SUVmean Median” value (Table 3, first reader, N=28) was 21.20. The “SUVmean Min” value (Table 3, first reader, N=28) was 5.40, the “TTBR (Tumour-to-Background Ratio) Mean” value (Table 3, first reader, N=28) was 83.38 and the “TTBR Max” value (Table 3, first reader, N=28) was 294.10. The “TTBR Median” value (Table 3, first reader, N=28) was 53.55, the “TTBR Min” value (Table 3, first reader, N=28) was 10.30 and the “SUVmax Median Difference” value (Table 3, first reader, N=28) was 14.23. For the same substance, the “SUVmean Median Difference” value (Table 3, first reader, N=28) was 9.26, the “TTBR Median Difference” value (Table 3, first reader, N=28) was 27.94 and the “SUVmax Mean” value (Table 3, first reader, ^68Ga-PSMA-11 (200 MBq) vs ^64Cu-SAR-bisPSMA (200 MBq) PET/CT, lesions averaged per participant, N=28) was 41.66. For the same substance, the “SUVmax Max” value (Table 4, second reader, N=16) was 100, the “SUVmax Median” value (Table 4, second reader, N=16) was 41.66 and the “SUVmax Min” value (Table 4, second reader, N=16) was 6.1. For the same substance, the “SUVmean Max” value (Table 4, second reader, N=16) was 69.9, the “SUVmean Mean” value (Table 4, second reader, N=16) was 33.24 and the “SUVmean Median” value (Table 4, second reader, N=16) was 28.4. For the same substance, the “SUVmean Min” value (Table 4, second reader, N=16) was 4.4, the “TTBR (Tumour-to-Background Ratio) Mean” value (Table 4, second reader, N=16) was 93.86 and the “TTBR Max” value (Table 4, second reader, N=16) was 243.9. The “TTBR Median” value (Table 4, second reader, N=16) was 78.37, the “TTBR Min” value (Table 4, second reader, N=16) was 6.7 and the “SUVmax Median Difference” value (Table 4, second reader, N=16) was 27.99. For the same substance, the “SUVmean Median Difference” value (Table 4, second reader, N=16) was 18.78, the “TTBR Median Difference” value (Table 4, second reader, N=16) was 46.93 and the “SUVmax Mean” value (Table 4, second reader, ^68Ga-PSMA-11 (200 MBq) vs ^64Cu-SAR-bisPSMA (200 MBq) PET/CT, lesions averaged per participant, N=16) was 49.73. The “Tumor to background ratio compared between ^64Cu-Sar-bisPSMA and ^68Ga-PSMA-11 (words)” value (listed as 64Cu-Sar-bisPSMA) was “higher”, the “Tumor to background ratio compared between ^64Cu-Sar-bisPSMA and ^68Ga-PSMA-11 (words)” value (listed as 64Cu-SarbisPSMA) was “higher tumour to background ratio” and the “SUVmean of lesions compared between ^64Cu-Sar-bisPSMA and ^68Ga-PSMA-11 (words)” value was “consistently higher”. For the same substance, the “SUVmean of lesions compared between ^64Cu-Sar-bisPSMA and ^68Ga-PSMA-11 (words)” value (listed as 64Cu-Sar-bis-PSMA) was “higher SUVmean”, the “SUVmean of lesions compared between ^64Cu-Sar-bisPSMA and ^68Ga-PSMA-11 (words)” value (listed as 64Cu-Sar-bisPSMA) was “greater” and the “SUVmax of lesions compared between ^64Cu-Sar-bisPSMA and ^68Ga-PSMA-11 (words)” value was “consistently higher”. The “SUVmax of lesions compared between ^64Cu-Sar-bisPSMA and ^68Ga-PSMA-11 (words)” value (listed as 64Cu-Sar-bisPSMA) was “higher SUVmax; also recorded: greater” and the “SUVmax of lesions compared between ^64Cu-Sar-bisPSMA and ^68Ga-PSMA-11 (words)” value (listed as 64Cu-SarbisPSMA) was “higher SUVmax”.
